Laboratory results reported in US12168652B2, “Neuromuscular blocking agents” (The Curators of the University of Missouri, priority 2018, dated 2024).
Entries after “also recorded” stand apart in the source; their conditions may differ.

Legend:
[1] = test system: rat phrenic nerve, hemi-diaphragm preparation; assay: Rat phrenic nerve hemi-diaphragm preparation, neostigmine reversibility; conditions: FIG. 8, in vitro; for neostigmine reversibility of the loss of strength (muscle weakness): 1 μM neostigmine
Experimental: Male, Sprague-Dawley rats weighing 100-180 g were obtained from Envigo and euthanized by exposure to 4.5% isoflurane followed by exsanguination. Right and left hemi-diaphragms were removed and placed in oxygen bubbled, cold saline until use. The saline contained, in mM, 140 NaCl, 5 KCl, 1.6 CaCl2·6H2O, 1 NaH2PO4, 6 NaHCO3, 5 D-glucose, 10 HEPES, pH 7.2 adjusted with 1 N NaOH, and was bubbled with 100% oxygen at 22° C. The costal cartilage of the hemi-diaphragm was secured to the floor of a 20 mL volume chamber with a metal hook and the crural end attached to a metal hook and thread leading to a force transducer (iWorx Systems, Dover, NH) and a data acquisition program (Labscribe). The phrenic nerve was introduced into a suction electrode and stimulated (pulse width=0.5 msec, supramaximal voltage=1 V) with a train of four, i.e., four stimuli in two seconds, repeated every minute. The first pulse, T1, was used as a measure of muscle strength. […]
In the figure CONTROL is the force of contraction before addition of test substances, TEST is the force after the addition of test substances, NEOSTIG is the force of contraction after the addition of 1 μM neostigmine, ROC is rocuronium, and SUC is succinylcholine.

[2] = target: T1, adult, human muscle, nicotinic acetylcholine receptor (Homo sapiens, UniProt P02708+P11230+Q04844+Q07001); assay: Patch clamp electrophysiology in transfected HEK-293 cells; type: cell-based; conditions: outside-out patch, 10 μM compound, 300 μM acetylcholine, -50 mV; for competition with acetylcholine at the receptor (summary graph): FIG. 9B
T1 construct: expressed in transfected cells; host or cells: HEK-293
Experimental: Patch clamp electrophysiology: HEK-293 cells were transfected with the cDNA for adult, human muscle acetylcholine receptors and prepared for patch clamp recording as described previously. Immediately before the experiment, the culture medium was replace with an extracellular solution (ECS) contains 150 mM NaCl, 5.6 mM KCl, 1.8 mM CaCl2, 1.0 mM MgCl2, and 10 mM HEPES, pH 7.3. Patch pipettes filled with a solution consisting of 140 mM KCl, 5 mM EGTA, 5 mM MgCl2, and 10 mM HEPES, pH 7.3, had resistances of 3 to 4 MΩ. An outside-out patch with a seal resistance of >2 GΩ was excised from a cell and moved into position at the outflow of a HSSE-2 rapid perfusion system (ALA Scientific Instruments, Westbury, NY). The patch was rapidly and transiently perfused with 300 μM acetylcholine to activate >95% of the channels at a holding potential of −50 mV. This was the control trace; the figures show the average of 5 control traces. Subsequently, the same patch was used to test for agonist activity by the carborane compounds by switching to a reservoir containing 300-1000 μM of the compound, repeated 5 times. To test for antagonism, the patch was equilibrated with 10 μM of the compound for >3 s followed by rapid perfusion of 300 μM acetylcholine+compound. Each series of traces using a compound was followed a return to control conditions (recovery) to determine that the control current hadn't changed by more than 20%. The peak current for each series of traces was calculated. The decrease in peak current represented a combination of competitive and open-channel block by the compound. The results are illustrated in FIGS. 9A and 9B.

mice = conditions: FIG. 6; dose response

Compound | mechanism of action (depolarizing or non-depolarizing) from neostigmine reversal [1] | neostigmine reversibility of the loss of strength (muscle weakness) [1] | competition with acetylcholine at the receptor (summary graph) [2] | competition with acetylcholine at the receptor (single compound traces) ([2]; FIG. 9A) | relative potency for loss of mouse grip strength as a function of dose injected (mice)
1,2-bis(N, N, N-trimethylpropan-1-aminium)-1,2-closo-carborane di-iodide [compound 1] | non-depolarizing NMBA; also recorded: non-depolarizers | reversed by neostigmine | compete with acetylcholine | – | –
C=CC[N+]1([C@H]2C[C@H]3[C@@H]4CC[C@H]5C[C@H](O)[C@@H](N6CCOCC6)C[C@]5(C)[C@H]4CC[C@]3(C)[C@H]2OC(C)=O)CCCC1 [rocuronium, Rocuronium bromide, reference compound] | – | reversed by neostigmine | – | – | –
C[N+](C)(C)CCOC(=O)CCC(=O)OCC[N+](C)(C)C [succinylcholine, succinylcholine chloride, reference compound] | – | not reversed by neostigmine | – | – | –
1,7-bis(N, N, N-trimethylpropan-1-aminium)-1,7-closo-carborane di-iodide [compound 2] | non-depolarizing NMBA; also recorded: non-depolarizers | reversed by neostigmine | compete with acetylcholine | – | –
1,12-bis(N, N, N-trimethylpropan-1-aminium)-1,12-closo-carborane di-iodide [compound 3] | non-depolarizing NMBA; also recorded: non-depolarizers | reversed by neostigmine | compete with acetylcholine | competes reversibly with acetylcholine | more potent than compound 1
